Active and inactive are the calls of the source. The rule behind the calls is not given here.
How the values were obtained:
A549 [1] = assay: Induction of apoptosis in human A549 cells assessed as necrotic cells at 5 uM incubated with compound followed by irradiation by annexin V-FITC staining based flow cytometry (reference value: 2.02%); type: functional
A549 [2] = assay: Induction of apoptosis in human A549 cells assessed as necrotic cells at 2.5 uM incubated for 72 hrs by annexin V-FITC staining based flow cytometry relative to control; type: functional
A549 [3] = assay: Induction of apoptosis in human A549 cells assessed as necrotic cells at 5 uM incubated for 48 hrs by annexin V FITC and propidium iodide based flow cytometry relative to control; type: functional
A549 [4] = assay: Inhibition of DNA damage repair in human A549 cells assessed as decrease in gamma-H2AX level at 5 uM incubated for 24 hrs followed by irradiation for 4 hrs by immunofluorescence staining based analysis; type: functional, cell-based
HBEC3-KT = assay: Antiproliferative activity against human HBEC3-KT cells at 0.1 to 10 uM measured after 72 hrs by CCK-8 method; type: functional, cell-based; details: dose 0.1-10 µM
A549 [5] = assay: Induction of apoptosis in human A549 cells assessed as viable cells at 10 uM incubated for 72 hrs by annexin V-FITC staining based flow cytometry (reference value: 99.9%); type: functional; details: read-out: Activity
[6] = target: Protein cereblon/Histone deacetylase 2 (Homo sapiens) (UniProt Q92769+Q96SW2); assay: Protac activity at CRBN/HDAC2 in human A549 cells assessed as reduction in HDAC2 protein level at 0.1 to 10 uM by Western blot analysis; type: cell-based; details: dose 0.1-10 µM
A549 [7] = assay: Induction of apoptosis in human A549 cells assessed as necrotic cells at 5 uM incubated for 72 hrs by annexin V-FITC staining based flow cytometry relative to control; type: functional
A549 [8] = assay: Synergistic antiproliferative activity against human A549 cells assessed as combination index measured after 72 hrs under irradiation by CCK-8 method; type: functional
[9] = target: T1, Protein cereblon/Histone deacetylase 8 (Homo sapiens) (UniProt Q9BY41+Q96SW2); assay: In vivo protac activity at CRBN/HDAC8 in human A549 cells xenografted in NOD/SCID mouse assessed as degradation of HDAC8 at 5 mg/kg, ip administered every 5 days measured at day 30 under irradiation condition by Western blot analysis; type: functional, organism-based; details: time 30.0 day
A549 [10] = assay: Inhibition of DNA damage repair in human A549 cells assessed as reduction in Ku80 protein level at 5 uM incubated for 24 hrs by immunofluorescence staining based analysis; type: functional, cell-based
[11] = target: T1, Protein cereblon/Histone deacetylase 8 (Homo sapiens); assay: Protac activity at CRBN/HDAC8 in human A549 cells assessed as decrease in PGM1 expression at 0.1 to 10 uM under glucose deprivation condition by Western blot analysis; type: cell-based; details: dose 0.1-10 µM
A549 [12] = assay: Induction of apoptosis in human A549 cells assessed as late apoptotic cells at 1.25 uM incubated for 72 hrs by annexin V-FITC staining based flow cytometry (reference value: 0.048%); type: functional
A549 [13] = assay: Effect on TIPARP gene in human A549 cells at 10 uM measured after 20 hrs by RNA sequencing analysis; type: functional, cell-based
[14] = target: T1, Protein cereblon/Histone deacetylase 8 (Homo sapiens); assay: Protac activity at CRBN/HDAC8 in human MDA-MB-231 cells assessed as decrease in SMAD3 protein level at 0.1 to 10 uM by Western blot analysis; type: cell-based; details: dose 0.1-10 µM
A549 [15] = assay: Effect on NPTX1 gene in human A549 cells at 10 uM measured after 20 hrs by RNA sequencing analysis; type: functional, cell-based
[16] = target: T1, Protein cereblon/Histone deacetylase 8 (Homo sapiens); assay: Protac activity at CRBN/HDAC8 in human A549 cells assessed as maximum degradation at 10 uM incubated for 20 hrs by ELISA method relative to control; type: cell-based
A549 [17] = assay: Downregulation of LAMTOR4 in human A549 cells measured after 20 hrs by proteomic analysis; type: functional, cell-based
A549 [18] = assay: Effect on MAPK4 gene in human A549 cells at 10 uM measured after 20 hrs by RNA sequencing analysis; type: functional, cell-based
[19] = Toxicity in NOD/SCID mouse xenografted with human A549 cells assessed as change in body weight loss at 5 mg/kg, ip administered every 5 days measured at day 30; type: organism-based; details: in vivo, 720 h, time 30 day
[20] = target: T1, Protein cereblon/Histone deacetylase 8 (Homo sapiens); assay: Protac activity at CRBN/HDAC8 in human A549 cells assessed as reduction in HDAC8 protein level at 10 uM by Western blot analysis relative to control; type: cell-based; parameters: scale not given: the % may be the effect or the level left
A549 [21] = assay: Induction of apoptosis in human A549 cells assessed as late apoptotic cells at 2.5 uM incubated for 72 hrs by annexin V-FITC staining based flow cytometry (reference value: 0.048%); type: functional
A549 [22] = assay: Induction of apoptosis in human A549 cells assessed as downregulation of PCNA level at 1.25 to 20 uM measured after 48 hrs by Western blot analysis; type: functional, cell-based; details: dose 1.25-20 µM
A549 [23] = assay: Induction of apoptosis in human A549 cells assessed as early apoptotic cells at 2.5 uM incubated for 72 hrs by annexin V-FITC staining based flow cytometry (reference value: 0.099%); type: functional
A549 [24] = assay: Downregulation of COMMD1 in human A549 cells measured after 20 hrs by proteomic analysis; type: functional, cell-based
A549 [25] = assay: Induction of apoptosis in human A549 cells assessed as viable cells at 5 uM incubated with compound followed by irradiation by annexin V-FITC staining based flow cytometry (reference value: 89.7%); type: functional; details: A549, light or radiation study, read-out: Activity
A549 [26] = assay: Induction of apoptosis in human A549 cells assessed as early apoptotic cells at 1.25 uM incubated for 72 hrs by annexin V-FITC staining based flow cytometry (reference value: 0.099%); type: functional
[27] = target: T1, Protein cereblon/Histone deacetylase 8 (Homo sapiens); assay: In vivo protac activity at CRBN/HDAC8 in human A549 cells xenografted in NOD/SCID mouse assessed as degradation of HDAC8 at 5 mg/kg, ip administered every 5 days measured at day 30 by Western blot analysis; type: functional, organism-based; details: time 30.0 day
A549 [28] = assay: Induction of apoptosis in human A549 cells assessed as viable cells at 1.25 uM incubated for 72 hrs by annexin V-FITC staining based flow cytometry (reference value: 99.9%); type: functional; details: read-out: Activity
A549 [29] = assay: Induction of apoptosis in human A549 cells assessed as late apoptotic cells at 20 uM incubated for 72 hrs by annexin V-FITC staining based flow cytometry (reference value: 0.048%); type: functional
[30] = target: T1, Protein cereblon/Histone deacetylase 8 (Homo sapiens); assay: Protac activity at CRBN/HDAC8 in human A549 cells assessed as degradation of HDAC8 at 2 uM measured after 20 hrs by Western blot analysis relative to control; type: cell-based
[31] = target: T1, Protein cereblon/Histone deacetylase 8 (Homo sapiens); assay: Protac activity at CRBN/HDAC8 in human A549 cells assessed as reduction in HDAC8 protein level by Western blot analysis; type: cell-based; details: dose 0.2-10 µM
A549 [32] = assay: Antiproliferative activity against human A549 cells assessed as inhibition of cell growth measured after 72 hrs under irradiation by CCK-8 method; type: functional, cell-based; details: A549, light or radiation study
A549 [33] = assay: Induction of apoptosis in human A549 cells assessed as early apoptotic cells at 5 uM incubated with compound followed by irradiation by annexin V-FITC staining based flow cytometry (reference value: 6.26%); type: functional

T1 sequence (Q96SW2 whole entry, looked up): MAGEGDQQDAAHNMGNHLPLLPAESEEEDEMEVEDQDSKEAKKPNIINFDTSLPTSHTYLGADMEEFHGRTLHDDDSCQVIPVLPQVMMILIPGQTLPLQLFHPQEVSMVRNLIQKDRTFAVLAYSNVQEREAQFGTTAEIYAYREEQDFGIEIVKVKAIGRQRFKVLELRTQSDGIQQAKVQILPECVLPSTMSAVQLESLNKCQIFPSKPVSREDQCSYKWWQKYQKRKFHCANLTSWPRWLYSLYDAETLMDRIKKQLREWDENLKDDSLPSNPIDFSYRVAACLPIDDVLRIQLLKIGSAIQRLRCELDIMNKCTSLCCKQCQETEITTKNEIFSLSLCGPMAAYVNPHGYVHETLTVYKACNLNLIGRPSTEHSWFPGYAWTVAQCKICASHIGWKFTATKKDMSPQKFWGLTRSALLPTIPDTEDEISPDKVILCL
T1 sequence (Q9BY41 whole entry, looked up): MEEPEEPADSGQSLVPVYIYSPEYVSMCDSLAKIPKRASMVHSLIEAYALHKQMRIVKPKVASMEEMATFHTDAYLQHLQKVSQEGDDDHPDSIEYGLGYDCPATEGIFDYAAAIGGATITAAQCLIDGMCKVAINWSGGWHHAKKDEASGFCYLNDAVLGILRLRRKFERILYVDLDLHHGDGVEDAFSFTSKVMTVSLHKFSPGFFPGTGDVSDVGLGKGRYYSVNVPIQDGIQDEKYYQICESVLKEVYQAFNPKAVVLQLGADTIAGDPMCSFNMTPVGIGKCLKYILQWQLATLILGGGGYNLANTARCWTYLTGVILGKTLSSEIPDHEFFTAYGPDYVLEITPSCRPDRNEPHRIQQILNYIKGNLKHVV
Chain of Protein cereblon/Histone deacetylase 2 (Homo sapiens) (Q92769 whole entry, looked up): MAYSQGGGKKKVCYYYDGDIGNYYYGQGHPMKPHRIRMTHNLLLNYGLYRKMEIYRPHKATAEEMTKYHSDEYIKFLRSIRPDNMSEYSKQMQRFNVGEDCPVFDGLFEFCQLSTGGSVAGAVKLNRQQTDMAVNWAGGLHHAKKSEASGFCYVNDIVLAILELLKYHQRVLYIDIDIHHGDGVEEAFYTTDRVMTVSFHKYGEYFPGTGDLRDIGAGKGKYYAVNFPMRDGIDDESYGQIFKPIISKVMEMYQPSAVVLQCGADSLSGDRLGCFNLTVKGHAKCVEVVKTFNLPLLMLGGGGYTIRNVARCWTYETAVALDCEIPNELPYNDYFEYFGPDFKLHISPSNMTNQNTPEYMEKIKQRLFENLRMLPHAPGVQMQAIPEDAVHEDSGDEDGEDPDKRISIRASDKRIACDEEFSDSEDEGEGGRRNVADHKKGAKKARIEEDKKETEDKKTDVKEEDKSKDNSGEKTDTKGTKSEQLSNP
Chain of Protein cereblon/Histone deacetylase 2 (Homo sapiens) (Q96SW2 whole entry, looked up): as the sequence (Q96SW2 whole entry, looked up) above

Compound `O=C1CCC(N2C(=O)c3cccc(NCc4cn(CCOCCOc5ccc(Cn6ccc7ccc(C(=O)NO)cc76)cc5)nn4)c3C2=O)C(=O)N1` (centres undefined) has an Activity (A549 [1]) of 0.75%, an Activity (A549 [2]) of 0.57% and an Activity (A549 [3]) of 30%. For the same compound, the inhibition (A549 [4]) was “Active”, the Activity (HBEC3-KT) was “Active” and the viability at 10 µM (A549 [5]) was 42.7%. For the same compound, the Activity [6] was “inactive”, the Activity (A549 [7]) was 2.49% and the CI (A549 [8]) was 0.65. The Activity [9] was “Active”, the inhibition (A549 [10]) was “Active” and the Activity [11] was “Active”. The Activity (A549 [12]) was 7.4%, the Activity (A549 [13]) was “Active” and the Activity [14] was “Active”. The Activity (A549 [15]) was “Active”, the Emax [16] was greater than 95% and the Activity (A549 [17]) was “Active”. The Activity (A549 [18]) was “Active”, the Activity [19] was “Non-Toxic” and the Activity [20] was greater than 90%. The Activity (A549 [21]) was 15.3%, the Activity (A549 [22]) was “Active” and the Activity (A549 [23]) was 22.5%. The Activity (A549 [24]) was “Active”, the viability at 5 µM (A549 [25]) was 66.3% and the Activity (A549 [26]) was 24.2%. For the same compound, the Activity [27] was “Active”, the viability at 1.25 µM (A549 [28]) was 68.2% and the Activity (A549 [29]) was 22.7%. The Activity [30] was 85.4%, the Activity [31] was “Dose-Dependent Effect” and the IC50 (A549 [32]) was 6.04 µM. For the same compound, the Activity (A549 [33]) was 26.7%.
